Laboratory results reported in patent US8546377B2 (AbbVie Inc., priority 2009, dated 2013).

How the values were obtained:
[1] = target: T1, 5HT2C receptors (Homo sapiens, UniProt P28335); assay: Human 5-HT2C functional assay in 1321N1 cells (intracellular calcium, FLIPR); format: cell-based; parameters: expressed in transfected cells; host or cells: 1321N1 cells; conditions: for EC50: 1321N1 cells stably transfected, maximum calcium response, read-out: EC50 (μM), 5-HT2c Agonist Activity; for Emax: 1321N1 cells, percentage relative to the effect of serotonin, read-out: Emax (%), 5-HT2c Agonist Activity
T1 sequence (P28335 33-458): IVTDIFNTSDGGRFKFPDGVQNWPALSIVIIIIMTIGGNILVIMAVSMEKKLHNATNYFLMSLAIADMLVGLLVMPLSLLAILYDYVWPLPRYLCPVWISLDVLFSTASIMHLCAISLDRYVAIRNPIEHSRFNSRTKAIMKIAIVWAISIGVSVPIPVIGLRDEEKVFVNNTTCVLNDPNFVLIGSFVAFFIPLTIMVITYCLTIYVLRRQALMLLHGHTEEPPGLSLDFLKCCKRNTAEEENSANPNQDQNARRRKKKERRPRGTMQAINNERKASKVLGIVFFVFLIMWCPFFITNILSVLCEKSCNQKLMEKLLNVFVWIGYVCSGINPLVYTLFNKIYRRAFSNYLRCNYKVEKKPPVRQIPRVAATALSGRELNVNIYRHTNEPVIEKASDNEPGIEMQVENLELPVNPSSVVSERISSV
Method: (ii) Human 5-HT2C Functional Assay in 1321N1 Cells
Functional activity was determined by testing the effect of the compounds on intracellular calcium levels in 1321N1 cells stably transfected with the human 5-HT2C receptor. Cells were seeded into 96-well plates at 50,000 cells/well and grown overnight in tissue culture medium (DMEM with Glutamax I (Invitrogen), containing 10% dFCS, 50 μg/mL Gentamicin, 400 μg/mL Geneticin) at 37° C. and 7% CO2. Growth medium was replaced by medium without dFCS for overnight incubation. Cells were loaded with a fluorescent calcium-sensitive dye in the presence of 1% probenicid according to the manufacturer's protocol (Fluo4 AM, Molecular Devices). Serial compound dilutions (final concentrations 10^−10 to 10^−5 M) were added to the cells either alone or in the presence of serotonin (10^−9 M) and the maximum calcium response was determined using a FLIPR instrument (Molecular Devices). Concentration-response curves were fitted using a four-parameter logistic equation (GraphPad Prism). The concentration at which the compound exerts half its maximal effect is named the ‘effective concentration 50’ or ‘EC50’ and is listed in Table 2.
Emax is the maximum functional response or efficacy expressed as a percentage relative to the effect of serotonin.

[2] = target: T2, human serotonin 5-HT2c receptor (Homo sapiens, UniProt P28335); assay: Human 5-HT2C receptor radioligand binding assay (agonist site, [125I](±)DOI); conditions: membranes of transfected CHO cells, 0.2 nM [125I](±)DOI, 15 minutes at 37° C.
T2 construct: expressed in transfected cells; host or cells: CHO cells (membrane homogenate)
T2 sequence (P28335 33-458): T1 sequence (P28335 33-458)
Method: To determine the effectiveness of compounds having a formula (I), these compounds can be evaluated in a radioligand binding assay for the agonist site of the human serotonin 5-HT2c receptor or in vitro models of cellular function.
(i) Human 5-HT2C Receptor Radioligand Binding Assay
Affinity of compounds for the agonist site of the 5-HT2c receptor in transfected CHO cells was determined in a radioligand binding assay essentially as described by Bryant, H. U., et al., Life Sciences (1996) 59(15), 1259-1268.

[3] = target: T1, 5HT2C receptors; assay: Human 5-HT2C functional assay in CHO-K1 cells (calcium flux, FLIPR); format: cell-based; parameters: expressed in transfected cells; host or cells: CHO-K1 cells; conditions: for Emax: CHO-K1, read-out: Emax (%), 5-HT2c Agonist Activity, CHO-K1 cells, percentage relative to the effect of serotonin
Summary of the method: (§1)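 EC50 came from a 4-parameter logistic fit, with Emax expressed relative to serotonin, of intracellular Ca2+ rises read on FLIPR at 480/530 nm, 25° C, over 3 min. Compounds ran from 10 μM in six 1:10 steps (0.2% DMSO) on serum-starved CHO-K1 transfectants pre-loaded 60 min with Ca4 dye and probenecid.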

[4] = target: T3, 5HT2B receptors (Homo sapiens, UniProt P41595); assay: Human 5-HT2B functional assay in CHO-K1 cells (calcium flux, FLIPR); format: cell-based
T3 construct: expressed in transfected cells; host or cells: CHO-K1 cells
Summary of the method: as §1

T3 sequence (P41595 whole entry): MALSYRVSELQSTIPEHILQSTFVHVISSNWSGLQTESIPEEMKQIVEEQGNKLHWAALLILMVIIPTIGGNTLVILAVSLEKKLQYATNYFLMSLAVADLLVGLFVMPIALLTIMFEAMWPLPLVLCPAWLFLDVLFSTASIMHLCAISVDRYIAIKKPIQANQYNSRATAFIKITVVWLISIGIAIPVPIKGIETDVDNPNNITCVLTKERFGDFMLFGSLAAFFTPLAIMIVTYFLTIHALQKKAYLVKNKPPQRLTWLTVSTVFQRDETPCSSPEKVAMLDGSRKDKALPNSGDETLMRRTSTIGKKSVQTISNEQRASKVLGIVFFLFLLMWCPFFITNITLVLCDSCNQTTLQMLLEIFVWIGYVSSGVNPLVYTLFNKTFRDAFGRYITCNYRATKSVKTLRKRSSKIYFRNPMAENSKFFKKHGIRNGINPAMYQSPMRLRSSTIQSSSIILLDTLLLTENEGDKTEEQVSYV

Row | SMILES | EC50 [1] | Emax [1] | Ki [2] | EC50 [3] | Emax [3] | EC50 [4] | Emax ([4]; CHO-K1, read-out: Emax (%), 5-HT2B Agonist Activity)
1 | O=C1CC2CNCCN2c2ccccc2N1 (stereo not drawn) [Example 1, 1,2,3,4,4a,5-hexahydropyrazino[1,2-a][1,5]benzodiazepin-6(7H)-one] | 0.0135 µM | 100% | 0.086 µM |  |  |  | 
2 | O=C1CC2CNCCN2c2cc(Cl)ccc2N1 (stereo not drawn) [Example 3, 10-chloro-1,2,3,4,4a,5-hexahydropyrazino[1,2-a][1,5]benzodiazepin-6(7H)-one] | 0.0017 µM | 93% | 0.012 µM |  |  |  | 
3 | O=C1CC2CNCCN2c2cc(Br)ccc2N1 (stereo not drawn) [Example 4, 10-bromo-1,2,3,4,4a,5-hexahydropyrazino[1,2-a][1,5]-benzodiazepin-6(7H)-one] | 0.0028 µM | 92% | 0.0069 µM |  |  |  | 
4 | O=C1CC2CNCCN2c2cc(-c3ccccc3)ccc2N1 (stereo not drawn) [Example 5, 10-phenyl-1,2,3,4,4a,5-hexahydropyrazino[1,2-a][1,5]benzodiazepin-6(7H)-one] | 0.0849 µM | 86% | 0.074 µM |  |  |  | 
5 | O=C1CC2CNCCN2c2cc(/C=C/c3ccccc3)ccc2N1 (stereo not drawn) [Example 6, 10-[(E)-2-phenylvinyl]-1,2,3,4,4a,5-hexahydropyrazino[1,2-a][1,5]benzodiazepin-6(7H)-one] | 0.0298 µM | 89.5% | 0.0035 µM |  |  |  | 
6 | O=C1CC2CNCCN2c2cc(-c3cccc(Cl)c3)ccc2N1 (stereo not drawn) [Example 7, 10-(3-chlorophenyl)-1,2,3,4,4a,5-hexahydropyrazino[1,2-a][1,5]benzodiazepin-6(7H)-one] | 0.0279 µM | 86% | 0.041 µM |  |  |  | 
7 | O=C1CC2CNCCN2c2cc(-c3ccccc3Cl)ccc2N1 (stereo not drawn) [Example 8, 10-(2-chlorophenyl)-1,2,3,4,4a,5-hexahydropyrazino[1,2-a][1,5]benzodiazepin-6(7H)-one] |  |  | 0.14 µM |  |  |  | 
8 | O=C1CC2CNCCN2c2cc(/C=C/c3cccc(F)c3)ccc2N1 (stereo not drawn) [Example 9, 10-[(E)-2-(3-fluorophenyl)vinyl]-1,2,3,4,4a,5-hexahydropyrazino[1,2-a][1,5]benzodiazepin-6(7H)-one] |  |  | 0.0032 µM |  |  |  | 
9 | Cc1ccc2c(c1)N1CCNCC1CC(=O)N2 (stereo not drawn) [Example 10, 10-methyl-1,2,3,4,4a,5-hexahydropyrazino[1,2-a][1,5]benzodiazepin-6(7H)-one] | 0.003 µM | 99% | 0.0083 µM |  |  |  | 
10 | N#Cc1ccc2c(c1)N1CCNCC1CC(=O)N2 (stereo not drawn) [Example 11, 6-oxo-1,2,3,4,4a,5,6,7-octahydropyrazino[1,2-a][1,5]benzodiazepine-10-carbonitrile] | 0.0938 µM | 104% | 0.19 µM |  |  |  | 
11 | COc1ccc2c(c1)N1CCNCC1CC(=O)N2 (stereo not drawn) [Example 12, 10-methoxy-1,2,3,4,4a,5-hexahydropyrazino[1,2-a][1,5]benzodiazepin-6(7H)-one] | 0.0381 µM | 83.5% | 0.038 µM |  |  |  | 
12 | O=C1CC2CNCCN2c2ccc(Br)cc2N1 (stereo not drawn) [Example 13, 9-bromo-1,2,3,4,4a,5-hexahydropyrazino[1,2-a][1,5]benzodiazepin-6(7H)-one] | 0.0683 µM | 79% | 0.23 µM |  |  |  | 
13 | O=C1CC2CNCCN2c2ccc(-c3ccc(Cl)cc3)cc2N1 (stereo not drawn) [Example 14, 9-(4-chlorophenyl)-1,2,3,4,4a,5-hexahydropyrazino[1,2-a][1,5]-benzodiazepin-6(7H)-one] |  |  | 0.17 µM |  |  |  | 
14 | O=C1CC2CNCCN2c2cc(Cl)c(Cl)cc2N1 (stereo not drawn) [Example 15, 9,10-dichloro-1,2,3,4,4a,5-hexahydropyrazino[1,2-a][1,5]benzodiazepin-6(7H)-one] | 0.0081 µM | 104% | 0.017 µM |  |  |  | 
15 | Clc1cc2c(cc1Cl)N1CCNCC1CCN2 (stereo not drawn) [Example 16, 9,10-dichloro-1,2,3,4,4a,5,6,7-octahydropyrazino[1,2-a][1,5]benzodiazepine] | 0.0018 µM | 91% | 0.004 µM |  |  |  | 
16 | c1ccc2c(c1)NCCC1CNCCN21 (stereo not drawn) [Example 17, 1,2,3,4,4a,5,6,7-octahydropyrazino[1,2-a][1,5]benzodiazepine] | 0.073 µM | 111% | 0.14 µM |  |  |  | 
17 | Clc1ccc2c(c1)N1CCNCC1CCN2 (stereo not drawn) [Example 18, 10-chloro-1,2,3,4,4a,5,6,7-octahydropyrazino[1,2-a][1,5]benzodiazepine] | 0.0037 µM | 108% | 0.018 µM |  |  |  | 
18 | CN1C(=O)CC2CNCCN2c2ccccc21 (stereo not drawn) [Example 20, 7-methyl-1,2,3,4,4a,5-hexahydropyrazino[1,2-a][1,5]benzodiazepin-6(7H)-one] | 0.0759 µM | 103% | 0.22 µM |  |  |  | 
19 | Clc1ccccc1CN1CCC2CNCCN2c2ccccc21 (stereo not drawn) [Example 21, 7-(2-chlorobenzyl)-1,2,3,4,4a,5,6,7-octahydropyrazino[1,2-a][1,5]benzodiazepine] | 0.044 µM | 93% | 0.097 µM |  |  |  | 
20 | Clc1cccc(CN2CCC3CNCCN3c3ccccc32)c1 (stereo not drawn) [Example 22, 7-(3-chlorobenzyl)-1,2,3,4,4a,5,6,7-octahydropyrazino[1,2-a][1,5]benzodiazepine] | 0.0697 µM | 80.5% | 0.085 µM |  |  |  | 
21 | CCN1CCN2c3ccccc3NC(=O)CC2C1 (stereo not drawn) [Example 23, 3-ethyl-1,2,3,4,4a,5-hexahydropyrazino[1,2-a][1,5]benzodiazepin-6(7H)-one] | 0.165 µM | 87% | 0.19 µM |  |  |  | 
22 | O=C1CC2CN(Cc3ccccc3)CCN2c2cc(Cl)ccc2N1 (stereo not drawn) [Example 24, 3-benzyl-10-chloro-1,2,3,4,4a,5-hexahydropyrazino[1,2-a][1,5]benzodiazepin-6(7H)-one] | 0.942 µM |  | 0.36 µM |  |  |  | 
23 | O=C1CC2CNCCN2c2cc(/C=C/c3cccc(Cl)c3)ccc2N1 (stereo not drawn) [Example 25, 10-[(E)-2-(3-chlorophenyl)vinyl]-1,2,3,4,4a,5-hexahydropyrazino[1,2-a][1,5]benzodiazepin-6(7H)-one] | 0.0145 µM | 101% | 0.0014 µM |  |  |  | 
24 | O=C1CC2CNCCN2c2cc(/C=C/c3ccc(F)cc3)ccc2N1 (stereo not drawn) [Example 26, 10-[(E)-2-(4-fluorophenyl)vinyl]-1,2,3,4,4a,5-hexahydropyrazino[1,2-a][1,5]benzodiazepin-6(7H)-one] | 0.0855 µM | 98.5% | 0.032 µM |  |  |  | 
25 | O=C1CC2CNCCN2c2cc(/C=C/c3ccc(Cl)cc3)ccc2N1 (stereo not drawn) [Example 27, 10-[(E)-2-(4-chlorophenyl)vinyl]-1,2,3,4,4a,5-hexahydropyrazino[1,2-a][1,5]benzodiazepin-6(7H)-one] | 0.183 µM | 96.5% | 0.013 µM |  |  |  | 
26 | O=C1CC2CNCCN2c2cc(/C=C/c3ccc(F)cc3F)ccc2N1 (stereo not drawn) [Example 28, 10-[(E)-2-(2,4-difluorophenyl)vinyl]-1,2,3,4,4a,5-hexahydropyrazino[1,2-a][1,5]benzodiazepin-6(7H)-one] | 0.131 µM | 92% | 0.036 µM |  |  |  | 
27 | C[C@H]1CN2c3ccccc3OCC[C@H]2CN1 [Example 271, (2S,4aS)-2-methyl-2,3,4,4a,5,6-hexahydro-1H-pyrazino[2,1-d][1,5]benzoxazepine] |  |  |  | 100 nM | 50% | > 10000 nM | 
28 | Fc1cccc2c1N1CCNC[C@@H]1CCO2 [Example 272, (4aS)-11-fluoro-2,3,4,4a,5,6-hexahydro-1H-pyrazino[2,1-d][1,5]benzoxazepine] |  |  |  | 5 nM | 85% | 50 nM | 30%
